Values quoted from earlier work in patent US6355677B1, “Adrenoleukodystrophy treatments and drug screening” (The Johns Hopkins University, priority 1998, dated 2002).

Legend:
[1] = active ingredient of Lorenzo oil; cited from earlier work
[2] = in rats; cited from earlier work

| SMILES | Brain entry [1] | Blood-brain barrier passage [2] |
| --- | --- | --- |
| CCCCCCCC/C=C\CCCCCCCCCCCC(=O)O [erucic acid] | does not get into the brain | – |
| O=C(O)Cc1ccccc1 [phenylacetate] | – | can cross the blood-brain barrier |
